Laboratory results as given in patent US20160108098A1, “THERAPEUTIC PEPTIDES” (GLAXOSMITHKLINE INTELLECTUAL PROPERTY DEVELOPMENT LIMITED, priority 2013, published 2016).

Assays:
[1] = molecular target: T1, human Neuropeptide Y receptor type 2 (Homo sapiens, UniProt P49146); test: melanophore assay, potency at the human Neuropeptide Y receptor type 2; type: cell-based; details: read-out: hNPY Y2 pEC50 (converted)
T1 construct: expressed in transfected cells; host or cells: melanophores; own knowledge: in the cited Jayawickreme protocol these are Xenopus laevis melanophores transfected with the receptor
T1 sequence (P49146 1-381): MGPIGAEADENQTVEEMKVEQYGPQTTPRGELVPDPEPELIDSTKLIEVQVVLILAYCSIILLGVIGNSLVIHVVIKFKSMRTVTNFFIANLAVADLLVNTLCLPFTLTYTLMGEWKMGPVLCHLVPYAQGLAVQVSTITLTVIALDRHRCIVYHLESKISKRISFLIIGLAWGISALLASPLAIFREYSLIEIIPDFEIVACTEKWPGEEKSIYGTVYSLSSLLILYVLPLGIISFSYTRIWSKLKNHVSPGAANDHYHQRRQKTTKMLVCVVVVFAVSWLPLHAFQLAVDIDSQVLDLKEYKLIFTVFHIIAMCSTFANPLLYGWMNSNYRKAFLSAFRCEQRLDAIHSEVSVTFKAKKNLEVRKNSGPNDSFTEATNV

[2] = cumulative food intake, diet-induced obese mice (Model B), BioDaQ system; type: in vivo; details: diet-induced obese C57BL/6 mice, 1 mg/kg subcutaneously, cumulative food intake after 6 h, relative to vehicle controls
Description: Cumulative food intake after 6 h was determined for the PYY analogs in either lean (Model A) or diet-induced obese (DIO) (Model B) C57BL/6 mice in a BioDaQ system for continuous monitoring of food intake (Research Diets Inc., New Brunswick, N.J.). […] Mice were placed singly into the BioDaQ cages and acclimatized for a minimum of 6 days and were allowed ad libitum access to food and water. Approximately 1 hour prior to lights-out, animals were dosed subcutaneously with either vehicle (20 mM Acetate buffer, pH 4.9 or 20% DMSO in water) or analogs dissolved in vehicle (1 mg/kg) (8 animals per group). Once all animals have been dosed, feeder gates were opened providing ad-libitum access to food. Continuous food intake was monitored and collected for 15 hours. […] P-values<0.05 were considered to indicate a significant difference between treatment groups.

[3] = chronic (41 days) efficacy study in diet-induced obese (DIO) Long Evans rats: body weight, body composition, food intake; type: in vivo, Long Evans rat; details: for weight loss vs. vehicle: 40 days, subcutaneous osmotic pumps, ED50 doses; for fat mass lost from vehicle control: QMR, day 40 of treatment; for inhibition of cumulative food intake: treatment period, vs. vehicle control
Description: Rats were 17 weeks old at the start of the study. The rats were housed 1 per cage and given ad libitum access to TD.95217 chow and water, maintained on a 12 h light/dark cycle from 5:00 AM to 5:00 PM at 21° C. and 50% relative humidity and allowed to acclimate for at least 7 days prior to baseline measurements. Baseline fat mass and non-fat mass measurements were taken 3 days before the start of peptide infusion and on day 40 of treatment using a QMR instrument (Echo Medical Systems, Houston, Tex.). […] Each rat was implanted with two osmotic pumps subcutaneously in the scapula region containing vehicle or peptide according to their treatment group. Body weight and food intake were measured twice per week beginning three days before the 41-day treatment period. On day 41 of treatment, whole blood was collected by cardiac stick under isoflurane anesthesia. Plasma and serum were then prepared from the whole blood for serum chemistry analysis. All the data are presented as mean±SEM. The data were analyzed in either Prism (GraphPad Software, Inc., La Jolla, Calif.) or Excel using a Student's T-test to compare each group to the appropriate control group. P-values<0.05 were considered to indicate a significant difference between treatment groups.

[4] = chronic (26 days) efficacy study in Zucker Diabetic Fatty (ZDF) rats: glucose, HbA1c; type: in vivo, Zucker Diabetic Fatty (ZDF) rat; details: for ΔΔ % HbA1c / ΔΔGlucose: 26 days of treatment, change from baseline and vehicle control; for ΔΔGlucose: ED20 doses
Text: Male ZDF rats were 12 weeks old at the start of the study (Charles River, Inc. Boston, Mass.). […] Baseline fat mass and non-fat mass measurements were taken 3 days before the start of peptide infusion and on day 26 of treatment using a QMR instrument (Echo Medical Systems, Houston, Tex.). […] P-values<0.05 were considered to indicate a significant difference between treatment groups.

CC(C)C[C@H](NC(=O)[C@H](CO)NC(=O)[C@H](C)NC(=O)[C@H](Cc1ccc(O)cc1)NC(=O)[C@H](Cc1ccc(O)cc1)NC(=O)[C@H](CCCNC(=N)N)NC(=O)[C@H](CC(N)=O)NC(=O)[C@H](Cc1c[nH]c2ccccc12)NC(=O)[C@H](CCC(=O)O)NC(=O)[C@H](CCC(=O)O)NC(=O)[C@@H]1CCCN1C(=O)[C@H](CO)NC(=O)[C@H](C)NC(=O)[C@H](CC(=O)O)NC(=O)[C@H](CCCCN)NC(=O)CNC(=O)[C@@H]1CCCN1C(=O)[C@H](Cc1c[nH]cn1)NC(=O)[C@H](CCC(=O)O)NC(=O)[C@@H]1CCCN1C(=O)[C@H](CCCCN)NC(=O)[C@@H]1CCCN1)C(=O)N[C@@H](CCCNC(=N)N)C(=O)N[C@@H](CCCCN)C(=O)N[C@@H](Cc1ccc(O)cc1)C(=O)N[C@@H](CC(C)C)C(=O)N[C@@H](CC(N)=O)C(=O)N[C@@H](Cc1c[nH]c2ccccc12)C(=O)N[C@H](C(=O)N[C@H](C(=O)N[C@@H](CCCNC(=N)N)C(=O)N[C@@H](CCC(N)=O)C(=O)N[C@@H](CCCNC(=N)N)C(=O)N[C@@H](Cc1ccc(O)cc1)C(N)=O)[C@@H](C)O)C(C)C [Example 25]
EC50 [1]: 0.251 nM | % reduction in food intake, model B [2]: −68%

PYY(3-36)NH2
weight loss vs. vehicle [3]: −1.3% | fat mass lost from vehicle control [3]: −10.9 grams | inhibition of cumulative food intake [3]: −0.7% | ΔΔ % HbA1c [4]: 0.01 ± 0.4% | ΔΔGlucose [4]: −33.1 ± 17^ mg/dL

exendin-4
weight loss vs. vehicle [3]: −11.3% | fat mass lost from vehicle control [3]: −55.8 grams | ED50 for weight loss ([3]; dose used for infusion): 0.15 mg/kg/day | inhibition of cumulative food intake [3]: −20.1% | ΔΔ % HbA1c [4]: −0.4 ± 0.2% | ΔΔGlucose [4]: -53.9 mg/dL | ΔΔGlucose ([4]; listed as Exendin-4): -53.9 ± 18.3 mg/dL | ED20 for HbA1c lowering ([4]; dose used for infusion): 0.0055 mg/kg/day
